Results on ten compounds are retold here after patent US8673880B2, “Prevention and/or treatment of neurodegenerative disorders” (The University Of Liverpool, priority 2006, dated 2014).

Common to all, as to format: biochemical
For one experiment, the target named is T1, recombinant human BACE-1 (Homo sapiens, UniProt P56817).
T1 construct: purchased Sigma
The experiment is described as follows: BACE-1 inhibition by in vitro FRET peptide cleavage assay. The conditions noted are these: for IC50 (BACE-1): FRET peptide cleavage; for Therapeutic ratio (BACE/Xa): calculated from IC50 against BACE-1/anticoagulant activity; for EC50 (BACE inhibition): Example 2, Table 2. Here is the method:
In vitro cleavage of APP by BACE-1 was measured using a FRET peptide cleavage assay.
The ability of the compounds to inhibit BACE-1 cleavage of APP was assessed using a fluorescent resonance energy transfer (FRET) peptide cleavage assay employing the FRET peptide 5-FAM-Glu-Val-Asn-Leu-Asp-Ala-Phe-Lys(QXL520)-OH, containing the Swedish amino acid variant (Anaspec, Inc., CA, USA). When intact, the amino terminal fluorophore is quenched, but upon enzymatic cleavage the fluorophore is released from quencher and fluoresces (520 nm). Assays were performed in triplicate in 96 well black plates (20 mM sodium acetate, 0.1% Triton-X-100, pH 4.5; 2.5 μM peptide per well and 4.0×10^−3 units/well of recombinant human BACE-1 (Sigma)). The appropriate controls for enzyme activity and background fluorescence were employed and plates were incubated (1 h, 25° C., stopped with 2.5 M sodium acetate) Inhibitors were added in a concentration range from 1000-0.0001 μg/ml. Fluorescence 480ex/520em was measured on a Polarstar plate reader (BMG LabTechnologies, UK) and data were analysed by plotting log10 concentration of inhibitor against percent inhibition and fitting a four parameter sigmoidal curve using BioDataFit 1.02 (Chang Bioscience, USA).

In a further experiment the test system is Factor Xa. The experiment is described as follows: Anti Factor Xa (anticoagulant) activity, Coatest Heparin test kit. The conditions noted are these: for Anti-coagulant activity: anti-factor Xa, percentage of PIMH (defined as 100%); for Anticoagulant activity (%): Example 2, Table 2, standard heparin = 100. Here is the method:
Anti Factor Xa activity was measured against a porcine mucosal heparin (PIMH) standard of known activity (Sigma, UK) using a diagnostic grade Coatest Heparin test kit (Chromogenix, MA, USA), adapted to a 96 well plate format, reading A405 (Polarstar plate reader (BMG LabTechnologies, UK)).

The next experiment concerns the target T2, cathepsin D (Homo sapiens, UniProt P07339).
T2 construct: purchased Sigma, UK
The experiment is described as follows: Cathepsin D FRET cleavage assay. Here is the method: (§1) The ability of compounds to inhibit the structurally related proteases pepsin and cathepsin D (Sigma, UK) was measured by FRET cleavage assay (5 pmol enzyme/well, EnzChek Protease Assay kit (Molecular Probes, UK) according to manufacturer's instructions). Activity against human recombinant renin (Cayman Chemical, MI, USA), was measured by FRET peptide cleavage assay (0.08 pMoles enzyme/well, using the Renin Substrate 1 (Molecular Probes, Invitrogen, UK) according to manufacturer's instructions. IC50 values were calculated as described above.

The target in another experiment is T3, human recombinant renin (Homo sapiens, UniProt P00797).
T3 construct: purchased Cayman Chemical
T3 sequence (P00797 67-406): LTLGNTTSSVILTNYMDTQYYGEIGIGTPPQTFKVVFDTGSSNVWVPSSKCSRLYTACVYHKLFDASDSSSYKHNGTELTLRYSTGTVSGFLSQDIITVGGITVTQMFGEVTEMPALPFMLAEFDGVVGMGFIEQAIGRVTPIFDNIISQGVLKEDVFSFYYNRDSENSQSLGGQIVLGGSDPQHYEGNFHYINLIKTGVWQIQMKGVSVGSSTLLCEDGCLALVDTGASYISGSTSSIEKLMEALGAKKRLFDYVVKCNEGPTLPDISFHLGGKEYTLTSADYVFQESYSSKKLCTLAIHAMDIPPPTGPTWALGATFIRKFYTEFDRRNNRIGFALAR
The experiment is described as follows: Renin FRET peptide cleavage assay. The conditions noted are these: concentrations up to 1000 μg/ml. Here is the method: as §1

For experiment [1], the target named is T4, Aβ peptide (Amyloid β Protein Fragment 1-42) (Homo sapiens, UniProt P05067).
T4 construct: Amyloid β Protein Fragment 1-42; Sigma A9810; purchased Sigma A9810
T4 sequence (P05067 672-713): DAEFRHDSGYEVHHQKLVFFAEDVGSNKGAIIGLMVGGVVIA
The experiment is described as follows: Aβ aggregation assay (Thioflavin T). The conditions noted are these: for increase in the time taken to reach half-maximal peptide aggregation: concentration of 100 μg/ml, compared to parental PMH; for rate of A-β aggregation, % slower: compared to intact heparin. Here is the method: The Aβ peptide was prepared by addition of 1 ml of hexafluoro-2-propanol to 1 mg Aβ peptide (Amyloid β Protein Fragment 1-42; Sigma A9810) and disaggregation at room temperature for 1 hour. The resulting material was divided into 50 μl (50 μg) aliquots and dried in Speed Vac for approximately 2 hours, followed by storage at −20° C. The Thioflavin T (Sigma T-3516) solution was prepared as a 5 mM solution in 50 mM Glycine-NaOH pH 8.5, and stored in the dark at 4° C. Thioflavin T assay buffer comprising 20 μl Thioflavin T solution with 50 μl 1M DTT and […] assay Buffer (10 mM HEPES/100 mM NaCl pH 7.4) was kept on ice. 50 μl of 20 mM NaOH was added to 50 μg of Aβ peptide. 2.5 ml of Thioflavin T assay buffer was then added to this Aβ peptide solution, making “Aβ buffer”. The remaining 2.5 ml of Thioflavin T assay buffer was the blank buffer, and both were kept on ice. Six replicates of sample dilutions (1:1 in assay buffer) were pipetted into a 96 well black plate (Greiner 655076; 100 μl/well) and the plate was kept on ice. 100 μl/well of Aβ buffer was added to the samples (in triplicate), and 100 μl/well of the blank buffer added to a further three sample replicates. The 96 well plate was read (450 nm excitation wavelength and 490 nm emission wavelength), taking a reading every 150 seconds for 250 cycles one plate reader set at 37° C.

A further experiment has as its target T5, pepsin (Sus scrofa, UniProt P00791).
T5 construct: purchased Sigma, UK
The experiment is described as follows: Pepsin FRET cleavage assay. As for the experimental part:
as §1

T1 sequence (P56817 46-501): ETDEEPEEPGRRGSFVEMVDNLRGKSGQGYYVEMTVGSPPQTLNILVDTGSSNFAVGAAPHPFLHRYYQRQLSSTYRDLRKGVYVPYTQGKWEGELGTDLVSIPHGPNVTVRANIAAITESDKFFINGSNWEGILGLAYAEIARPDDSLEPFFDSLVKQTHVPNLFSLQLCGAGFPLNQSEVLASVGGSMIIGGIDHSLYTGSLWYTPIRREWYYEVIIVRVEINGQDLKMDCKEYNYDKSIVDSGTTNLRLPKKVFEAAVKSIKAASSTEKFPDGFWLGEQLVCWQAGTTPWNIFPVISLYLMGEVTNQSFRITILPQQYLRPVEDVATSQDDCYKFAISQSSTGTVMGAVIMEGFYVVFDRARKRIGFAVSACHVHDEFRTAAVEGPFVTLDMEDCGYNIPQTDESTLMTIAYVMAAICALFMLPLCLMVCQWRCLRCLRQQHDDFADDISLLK
T2 sequence (P07339 65-412, species assumed): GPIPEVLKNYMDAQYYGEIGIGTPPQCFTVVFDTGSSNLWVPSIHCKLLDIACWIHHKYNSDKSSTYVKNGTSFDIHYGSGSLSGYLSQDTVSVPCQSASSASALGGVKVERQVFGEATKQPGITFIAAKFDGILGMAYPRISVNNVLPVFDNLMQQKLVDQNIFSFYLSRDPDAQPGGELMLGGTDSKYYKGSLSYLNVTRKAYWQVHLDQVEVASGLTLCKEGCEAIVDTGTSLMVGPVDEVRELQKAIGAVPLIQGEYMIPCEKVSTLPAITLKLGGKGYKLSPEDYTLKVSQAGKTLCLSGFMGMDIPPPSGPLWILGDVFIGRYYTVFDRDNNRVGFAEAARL
T5 sequence (P00791 60-385): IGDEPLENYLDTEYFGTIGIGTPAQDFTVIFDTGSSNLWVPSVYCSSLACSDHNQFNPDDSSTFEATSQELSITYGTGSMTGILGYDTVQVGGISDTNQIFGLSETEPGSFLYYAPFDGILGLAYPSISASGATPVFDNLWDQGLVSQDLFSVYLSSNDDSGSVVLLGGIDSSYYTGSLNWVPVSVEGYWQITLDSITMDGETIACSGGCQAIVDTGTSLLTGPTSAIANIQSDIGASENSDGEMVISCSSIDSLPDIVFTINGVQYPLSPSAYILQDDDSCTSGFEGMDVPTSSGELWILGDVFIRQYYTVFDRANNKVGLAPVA

Turning to 6-O-desulphated heparin [Compound 5], the “IC50 (BACE-1)” value on recombinant human BACE-1 (Table 1) amounted to 0.100 μg/ml. The “Therapeutic ratio (BACE/Xa)” value at recombinant human BACE-1 is 61. The same compound gave an Anti-coagulant activity with Factor Xa of 0.5%.
With “6-O-desulphated, 2-O-desulphated heparin [Compound 7]”, the “IC50 (BACE-1)” value on recombinant human BACE-1 (Table 1) is 0.786 μg/ml. Further, on recombinant human BACE-1, the “Therapeutic ratio (BACE/Xa)” value is 123. In the experiment with Factor Xa, the Anti-coagulant activity stood at 0.03%.
On to “6-O-desulphated, 2-O-desulphated, N-acetylated heparin [Compound 8]”, for which, at recombinant human BACE-1 (Table 1), the “IC50 (BACE-1)” value is on record as >100 μg/ml and the “BACE-1 inhibitory activity in words” value was “almost abolished”. In addition, the “Therapeutic ratio (BACE/Xa)” value at recombinant human BACE-1 is 1. Further, in the experiment on Factor Xa, the Anti-coagulant activity is reported as 0.03%.
As for “6-O-desulphated, N-acetylated heparin [Compound 6]”, on recombinant human BACE-1 (Table 1), the “IC50 (BACE-1)” value was determined as 0.410 μg/ml. The “Therapeutic ratio (BACE/Xa)” value at recombinant human BACE-1 is 237. In the experiment with Factor Xa, this compound returned an Anti-coagulant activity of 0.03%.
With `NCCCS(=O)(=O)O` [Compound 10, 3-amino-1-propanesulfonic acid, reference compound], the “IC50 (BACE-1)” value at recombinant human BACE-1 (Table 1) was “No”. Besides, the “inhibition of BACE-1” value at recombinant human BACE-1 (even at high concentrations (1000 μg/ml)) is on record as “did not inhibit BACE-1”.
Turning to “Ido 2-de-O-sulphated heparin [Compound 3]”, the “IC50 (BACE-1)” value on recombinant human BACE-1 (Table 1) was found to be 0.053 μg/ml. Besides, the “Therapeutic ratio (BACE/Xa)” value at recombinant human BACE-1 was 147. The compound also yielded an Anti-coagulant activity with Factor Xa of 0.4%. Also, the “IC50 against cathepsin D” value against cathepsin D was 0.77 µg/mL. On human recombinant renin, the “inhibitory effect on renin” value is listed as “None of the compounds exerted an inhibitory effect on renin”. In addition, the “increase in the time taken to reach half-maximal peptide aggregation” value (“increase in the time taken” below) in experiment [1] stood at 50%.
On to “Ido 2-de-O-sulphated, N-acetylated heparin [Compound 4]”, for which the “EC50 fold lower than unmodified PMH” value at recombinant human BACE-1 (Example 2) was “approximately 3 fold”. For the same compound, at recombinant human BACE-1, the “EC50 (BACE inhibition)” value turned out to be 0.089 µg/mL and the “Therapeutic ratio (BACE/Xa)” value is reported as 1092. The “IC50 (BACE-1)” value at recombinant human BACE-1 (Table 1) worked out at 0.091 μg/ml. Further, in the experiment with Factor Xa (Example 1), the “anti factor Xa activity, fold lower than PIMH” value is “at least 3000 fold”. Also, in the experiment on Factor Xa, the “Anticoagulant activity (%)” value is recorded as <0.03% and the Anti-coagulant activity is reported as 0.03%. Further, the IC50 against pepsin against pepsin is > 1000 µg/mL. For the same compound, the “inhibitory effect on renin” value at human recombinant renin is “None of the compounds exerted an inhibitory effect on renin”. For the same compound, in experiment [1] (FIG. 2), the “rate of A-β aggregation, % slower” value stood at 100%. For the same compound, the “increase in the time taken” value in experiment [1] was 100%.
Take N-acetyl heparin [Compound 2]: at recombinant human BACE-1 (Table 1), the “IC50 (BACE-1)” value stood at 0.031 μg/ml. Further, on recombinant human BACE-1, the “Therapeutic ratio (BACE/Xa)” value was 3136. In addition, the Anti-coagulant activity in the experiment with Factor Xa was found to be 0.03%. Besides, the IC50 against pepsin on pepsin worked out at 3.27 µg/mL. The “fold less potent than PIMH against pepsin” value at pepsin (compared with compound 1) is 14 fold. The “IC50 against cathepsin D” value on cathepsin D worked out at 0.27 µg/mL. The “inhibitory effect on renin” value at human recombinant renin is given as “None of the compounds exerted an inhibitory effect on renin”. In addition, the “rate of A-β aggregation, % slower” value in experiment [1] (FIG. 2) was 50%. Besides, the “increase in the time taken” value in experiment [1] worked out at 50%.
As for Per-sulphated heparin [Compound 9], at recombinant human BACE-1 (Table 1), the “IC50 (BACE-1)” value was found to be 0.053 μg/ml. Also, the “Therapeutic ratio (BACE/Xa)” value at recombinant human BACE-1 is reported as 2. For the same compound, the Anti-coagulant activity with Factor Xa was found to be 35.0%.
In the case of “porcine intestinal mucosal heparin [Compound 1, reference compound]”, on recombinant human BACE-1, the “EC50 (BACE inhibition)” value is 0.027 µg/mL and the “Therapeutic ratio (BACE/Xa)” value is listed as 1. Also, the “IC50 (BACE-1)” value at recombinant human BACE-1 (Table 1) is on record as 0.028 μg/ml. Further, in the experiment with Factor Xa, the “Anticoagulant activity (%)” value was 100% and the Anti-coagulant activity amounted to 100%. For the same compound, the IC50 against pepsin against pepsin stood at 0.23 µg/mL. On cathepsin D, the “IC50 against cathepsin D” value was 0.1 µg/mL. The “inhibitory effect on renin” value at human recombinant renin was “None of the compounds exerted an inhibitory effect on renin”. The “enhancement of Aβ aggregation” value in experiment [1] (FIG. 2) is listed as “maximum enhancement”.
